{
  "source": "patent US20250263391A1",
  "about": "“CRYSTALLINE FORM OF TEGAVIVINT, METHOD OF PREPARATION, AND USE THEREOF” (Iterion Therapeutics, Inc., priority 2020, published 2025)",
  "format_in_all_cases": "physicochemical",
  "key": {"[1]": {"experiment": "Ball milling of Form I and Form IV: form stability by XRPD", "conditions": "for Form: ball milling in 1% Poloxamer 188 water solution (50 mg/mL)", "method": "(§1) Therefore, ball milling of Form I and Form IV was performed to evaluate the form stability and particle size growth. The detailed procedure of ball milling was as follows. • 1. Suspend Form I and Form IV sample in 1% Poloxamer 188 water solution (50 mg/mL), separately. • 2. Add ˜12 mL suspension into a 50-mL tube which contained milling beads (the volume of milling beads is around 30 mL). After 12 mL suspension was added, the liquid surface just covered the beads. • 3. Roll the 50-mL tube (containing beads and suspension) at 5° C., RT and 60° C. with 30 rpm. • 4. Sample ˜0.8 mL suspension at 1, 2, 4, 24 h using 1-mL syringe. • 5. Test XRPD, PSD and PLM for the suspension.\nFor XRPD analysis, PANalytical X'Pert^3 X-ray powder diffractometer was used."}, "[2]": {"experiment": "Ball milling of Form I and Form IV: particle size (PSD)", "method": "as §1"}, "[3]": {"experiment": "Slurry competition of Form I, III, IV and V at high water activity at RT (XRPD of wet cake)", "conditions": "mixture of Form I", "method": "The detailed procedure was as follows: • 1) Prepare saturated solution with Form I sample (803759-01-A) in three solvent systems. • 2) Add about 10 mg of each form into 1 mL corresponding saturated solution. • 3) Slurry and check the XRPD of the wet cake after one day and six days."}, "[4]": {"experiment": "Storage of milled Form I aqueous suspension", "conditions": "milled to a very small particle size", "method": "as §1"}, "[5]": {"experiment": "Form III samples after drying (XRPD)"}, "[6]": {"experiment": "Ball milling of Form I and Form IV: aggregation (PLM)", "conditions": "after 24 h", "method": "as §1\nPLM images were captured using Axio Scope A1 microscope from Carl Zeiss German."}, "[7]": {"experiment": "Dynamic Vapor Sorption (DVS)", "conditions": "25° C./80% RH", "method": "DVS was measured via a SMS (Surface Measurement Systems) DVS Intrinsic. The relative humidity at 25° C. were calibrated against deliquescence point of LiCl, Mg(NO3)2 and KCl."}, "[8]": {"experiment": "VT-XRPD of Form IV and exposure to ambient conditions", "method": "2) After heating to 75 and 120° C., pure Form VI was observed. […] Thus, Form IV is believed to be a hydrate. For XRPD analysis, PANalytical X'Pert^3 X-ray powder diffractometer was used."}},
  "note": "Entries after “also recorded” stand apart in the source; their conditions may differ.",
  "data": [
    {"molecule": "CC1CC(C)CN(S(=O)(=O)c2ccc3c(c2)C(=NO)c2cc(S(=O)(=O)N4CC(C)CC(C)C4)ccc2C3=NO)C1", "note": "(stereo not shown) [Form I, (9E,10E)-2,7-bis((3,5-dimethylpiperidin-1-yl)sulfonyl)anthracene-9,10-dione dioxime]", "values": [
      {"measurement": "Form", "setting": "[1]; 5° C., 1 h, listed as Form 1", "value": "Form I"},
      {"measurement": "Form", "setting": "[1]; 5° C., 2 h, listed as Form 1", "value": "Form I"},
      {"measurement": "Form", "setting": "[1]; 5° C., 4 h, listed as Form 1", "value": "Form I"},
      {"measurement": "Form", "setting": "[1]; 5° C., 24 h, listed as Form 1", "value": "Form I"},
      {"measurement": "Form", "setting": "[1]; 60° C., 1 h, listed as Form 1", "value": "Form I"},
      {"measurement": "Form", "setting": "[1]; 60° C., 2 h, listed as Form 1", "value": "Form I"},
      {"measurement": "Form", "setting": "[1]; 60° C., 4 h", "value": "Form I"},
      {"measurement": "Form", "setting": "[1]; 60° C., 24 h", "value": "Form I"},
      {"measurement": "Form", "setting": "[1]; RT, 1 h, listed as Form 1", "value": "Form I"},
      {"measurement": "Form", "setting": "[1]; RT, 2 h, listed as Form 1", "value": "Form I"},
      {"measurement": "Form", "setting": "[1]; RT, 4 h, listed as Form 1", "value": "Form I"},
      {"measurement": "Form", "setting": "[1]; RT, 24 h, listed as Form 1", "value": "Form I"},
      {"measurement": "D 90", "setting": "[2]; 5° C., 1 h, listed as Form 1", "value": 9.4, "unit": "μm"},
      {"measurement": "D 90", "setting": "[2]; 5° C., 2 h, listed as Form 1", "value": 9.0, "unit": "μm"},
      {"measurement": "D 90", "setting": "[2]; 5° C., 4 h, listed as Form 1", "value": 5.2, "unit": "μm"},
      {"measurement": "D 90", "setting": "[2]; 5° C., 24 h, listed as Form 1", "value": 5.6, "unit": "μm"},
      {"measurement": "D 90", "setting": "[2]; 60° C., 1 h, listed as Form 1", "value": 22.6, "unit": "μm"},
      {"measurement": "D 90", "setting": "[2]; 60° C., 2 h, listed as Form 1", "value": 6.6, "unit": "μm"},
      {"measurement": "D 90", "setting": "[2]; 60° C., 4 h, listed as Form 1", "value": 5.3, "unit": "μm"},
      {"measurement": "D 90", "setting": "[2]; 60° C., 24 h, listed as Form 1", "value": 2.0, "unit": "μm"},
      {"measurement": "D 90", "setting": "[2]; RT, 1 h, listed as Form 1", "value": 22.4, "unit": "μm"},
      {"measurement": "D 90", "setting": "[2]; RT, 2 h, listed as Form 1", "value": 21.4, "unit": "μm"},
      {"measurement": "D 90", "setting": "[2]; RT, 4 h, listed as Form 1", "value": 14.2, "unit": "μm"},
      {"measurement": "D 90", "setting": "[2]; RT, 24 h, listed as Form 1", "value": 2.8, "unit": "μm"},
      {"measurement": "Form obtained from slurry competition", "setting": "[3]; IV and V slurried in ACN/H2O (1:1, v/v) at RT", "value": "New form"},
      {"measurement": "Form obtained from slurry competition", "setting": "[3]; IV and V slurried in ACN/H2O (1:3, v/v) at RT", "value": "Form I"},
      {"measurement": "Form obtained from slurry competition", "setting": "[3]; IV and V slurried in H2O at RT, XRPD after one day and six days", "value": "Form IV"},
      {"measurement": "Form conversion during storage", "setting": "[4]", "value": "started converting to Form IV"},
      {"measurement": "Particle size growth during storage", "setting": "[4]", "value": "unacceptable particle size growth"}
    ]},
    {"molecule": "CC1CC(C)CN(S(=O)(=O)c2ccc3c(c2)C(=NO)c2cc(S(=O)(=O)N4CC(C)CC(C)C4)ccc2C3=NO)C1", "note": "(stereo not shown) [Form III, (9E,10E)-2,7-bis((3,5-dimethylpiperidin-1-yl)sulfonyl)anthracene-9,10-dione dioxime]", "values": [
      {"measurement": "Form conversion", "setting": "[5]; after exposure to ambient condition at RT", "value": "Form V"},
      {"measurement": "Form conversion", "setting": "[5]; after vacuum drying at RT", "value": "converted to Form IV"}
    ]},
    {"molecule": "CC1CC(C)CN(S(=O)(=O)c2ccc3c(c2)C(=NO)c2cc(S(=O)(=O)N4CC(C)CC(C)C4)ccc2C3=NO)C1", "note": "(stereo not shown) [Form IV, (9E,10E)-2,7-bis((3,5-dimethylpiperidin-1-yl)sulfonyl)anthracene-9,10-dione dioxime]", "values": [
      {"measurement": "Form", "setting": "[1]; 5° C., 1 h", "value": "Form IV"},
      {"measurement": "Form", "setting": "[1]; 5° C., 2 h", "value": "Form IV"},
      {"measurement": "Form", "setting": "[1]; 5° C., 4 h", "value": "Form IV"},
      {"measurement": "Form", "setting": "[1]; 5° C., 24 h", "value": "Form IV"},
      {"measurement": "Form", "setting": "[1]; 60° C., 1 h", "value": "Form IV"},
      {"measurement": "Form", "setting": "[1]; 60° C., 2 h", "value": "form conversion was observed; also recorded: Form I + IV"},
      {"measurement": "Form", "setting": "[1]; RT, 1 h", "value": "Form IV"},
      {"measurement": "Form", "setting": "[1]; RT, 2 h", "value": "Form IV"},
      {"measurement": "Form", "setting": "[1]; RT, 4 h", "value": "Form IV"},
      {"measurement": "Form", "setting": "[1]; RT, 24 h", "value": "form conversion was observed; also recorded: Amorphous"},
      {"measurement": "Form conversion on ball milling", "setting": "[1]; milled at elevated temperature (60° C.), time not stated", "value": "conversion to Form I; also recorded: converted to Form I"},
      {"measurement": "D 90", "setting": "[2]; 5° C., 1 h", "value": 33.7, "unit": "μm"},
      {"measurement": "D 90", "setting": "[2]; 5° C., 2 h", "value": 17.4, "unit": "μm"},
      {"measurement": "D 90", "setting": "[2]; 5° C., 4 h", "value": 5.8, "unit": "μm"},
      {"measurement": "D 90", "setting": "[2]; 5° C., 24 h", "value": 9.8, "unit": "μm"},
      {"measurement": "D 90", "setting": "[2]; 60° C., 1 h", "value": 3.9, "unit": "μm"},
      {"measurement": "D 90", "setting": "[2]; 60° C., 2 h", "value": 4.0, "unit": "μm"},
      {"measurement": "D 90", "setting": "[2]; 60° C., 4 h", "value": 2.0, "unit": "μm"},
      {"measurement": "D 90", "setting": "[2]; 60° C., 24 h", "value": 0.6, "unit": "μm"},
      {"measurement": "D 90", "setting": "[2]; RT, 1 h", "value": 6.6, "unit": "μm"},
      {"measurement": "D 90", "setting": "[2]; RT, 2 h", "value": 4.0, "unit": "μm"},
      {"measurement": "D 90", "setting": "[2]; RT, 4 h", "value": 3.4, "unit": "μm"},
      {"measurement": "D 90", "setting": "[2]; RT, 24 h", "value": 5.8, "unit": "μm"},
      {"measurement": "Aggregation", "setting": "[6]; 5° C.", "value": "Aggregation was observed"},
      {"measurement": "Aggregation", "setting": "[6]; RT", "value": "Aggregation was observed"},
      {"measurement": "water uptake", "setting": "[7]", "value": 9.1, "unit": "%"},
      {"measurement": "Form by VT-XRPD", "setting": "[8]; after cooling to 30° C.", "value": "Form VI was still observed"},
      {"measurement": "Form by VT-XRPD", "setting": "[8]; after heating to 75 and 120° C.", "value": "pure Form VI"},
      {"measurement": "Form by VT-XRPD", "setting": "[8]; at 30° C. under N2", "value": "partially converted to a new form"}
    ]},
    {"molecule": "CC1CC(C)CN(S(=O)(=O)c2ccc3c(c2)C(=NO)c2cc(S(=O)(=O)N4CC(C)CC(C)C4)ccc2C3=NO)C1", "note": "(stereo not shown) [Form VI, (9E,10E)-2,7-bis((3,5-dimethylpiperidin-1-yl)sulfonyl)anthracene-9,10-dione dioxime]", "values": [
      {"measurement": "Form conversion", "setting": "[8]; after exposure to ambient condition", "value": "converted to Form IV quickly"}
    ]}
  ]
}
